Results as given in article PMC10974276, “Physiological Functions of the Cello-Oligosaccharides Binding CebE in the Pathogenic Streptomyces sp. AMCC400023” (Microorganisms, 2024).

Columns and labels:
CebE^5601 = target: T1, CebE^5601; test: microscale thermophoresis; type: binding, Streptomyces sp. AMCC400023; conditions: 25 °C; protein 800 nM, dye-labelled; ligand series from 100 µM
T1 construct: N-terminal His tag (pET28a); E. coli BL21(C43); Ni-NTA; labelled with red fluorescent dye

CebE^7671 = target: T2, CebE^7671; test: microscale thermophoresis; type: binding, Streptomyces sp. AMCC400023; conditions: 25 °C; protein 800 nM, dye-labelled; ligand series from 270 mM
T2 construct: N-terminal His tag (pET28a); E. coli BL21(C43); Ni-NTA

OC[C@H]1O[C@@H](O[C@H]2[C@H](O)[C@@H](O)[C@H](O[C@H]3[C@H](O)[C@@H](O)C(O)O[C@@H]3CO)O[C@@H]2CO)[C@H](O)[C@@H](O)[C@@H]1O (stereo partly shown) [cellotriose]
Kd (CebE^5601): 1.61 µM
Kd (CebE^7671): 2720 µM

OC[C@H]1O[C@@H](O[C@H]2[C@H](O)[C@@H](O)C(O)O[C@@H]2CO)[C@H](O)[C@@H](O)[C@@H]1O (stereo partly shown) [cellobiose]
Kd (CebE^5601): 0.977 µM
Kd (CebE^7671): 1280 µM
